Assay results reported in patent publication US12607406B2, “Recombinant virus, composition comprising the same, and uses thereof” (ACADEMIA SINICA, priority 2016, dated 2026).

Experiments:
Assay type in all cases: biochemical
[1] = tested on: Influenza A virus A/WSN/33 (H1N1) neuraminidase (NA) variant 44-G, substitution at position 44, SEQ ID NO: 8
[2] = tested on: Influenza A virus A/WSN/33 (H1N1) neuraminidase (NA) variant 72-G, substitution at position 72, SEQ ID NO: 9
[3] = tested on: Influenza A virus A/WSN/33 (H1N1) neuraminidase (NA) variant 44-72-G, substitutions at positions 44 and 72, SEQ ID NO: 10
[4] = tested on: Influenza A virus A/WSN/33 (H1N1) neuraminidase (NA) variant 44-72-219-G, substitutions at positions 44, 72, and 219, SEQ ID NO: 11
[5] = tested on: Influenza A virus A/WSN/33 (H1N1) neuraminidase (NA) on virus, variant 44-G, substitution at position 44, SEQ ID NO: 8
[6] = tested on: Influenza A virus A/WSN/33 (H1N1) neuraminidase (NA) on virus, variant 72-G, substitution at position 72, SEQ ID NO: 9
[7] = tested on: Influenza A virus A/WSN/33 (H1N1) neuraminidase (NA) on virus, variant 44-72-G, substitutions at positions 44 and 72, SEQ ID NO: 10
[8] = tested on: Influenza A virus A/WSN/33 (H1N1) neuraminidase (NA) on virus, variant 44-72-219-G, substitutions at positions 44, 72, and 219, SEQ ID NO: 11
[9] = tested on: Influenza A virus A/WSN/33 (H1N1) neuraminidase (NA), all mutants (44-G, 72-G, 44-72-G, 44-72-219-G)

## CC(=O)N[C@H]1[C@H]([C@H](O)[C@H](O)CO)O[C@@](O[C@H]2[C@@H](O)[C@@H](CO)O[C@@H](O[C@H]3[C@H](O)[C@@H](NC(C)=O)C(O)O[C@@H]3CO)[C@@H]2O)(C(=O)O)C[C@@H]1O (stereo partly shown) [3SLN, 3′-sialyl-N-acetyllactosamine]
[1]
  Kcat: 389.8 s⁻¹
  Km: 295 µM
  Km value increased: more than two-fold
  Vmax: 4.09 nM/s
[2]
  Kcat: 364.4 s⁻¹
  Km: 289 µM
  Km value increased: more than two-fold
  Vmax: 3.89 nM/s
[3]
  Kcat: 136.4 s⁻¹
  Km: 296 µM
  Vmax: 1.46 nM/s
[4]
  Kcat: 139.1 s⁻¹
  Km: 299 µM
  Vmax: 1.48 nM/s
[5]
  Km: 274 µM
[6]
  Km: 268 µM
[7]
  Km: 285 µM
[8]
  Km: 281 µM

## CC(=O)N[C@H]1[C@H]([C@H](O)[C@H](O)CO)O[C@@](Oc2ccc3c(C)cc(=O)oc3c2)(C(=O)O)C[C@@H]1O [4-Muα-Neu5Ac, 2-(4-methylumbelliferyl)-α-D-N-acetylneuraminic acid]
[1]
  Kcat: 468.5 s⁻¹
  Km: 595 µM
  Vmax: 4.95 nM/s
[2]
  Kcat: 426.8 s⁻¹
  Km: 591 µM
  Vmax: 4.45 nM/s
[3]
  Kcat: 100.3 s⁻¹
  Km: 588 µM
  Vmax: 1.15 nM/s
[4]
  Kcat: 105.8 s⁻¹
  Km: 597 µM
  Vmax: 1.2 nM/s
[5]
  Km: 508 µM
[6]
  Km: 485 µM
[7]
  Km: 429 µM
[8]
  Km: 415 µM
[9]
  Km values of all mutants: similar

## CC(=O)N[C@H]1[C@H]([C@H](O)[C@H](O)CO)O[C@@](OC[C@H]2O[C@@H](O[C@H]3[C@H](O)[C@@H](NC(C)=O)C(O)O[C@@H]3CO)[C@H](O)[C@@H](O)[C@H]2O)(C(=O)O)C[C@@H]1O (stereo partly shown) [6SLN, 6′-sialyl-N-acetyllactosamine]
[1]
  Kcat: 90.6 s⁻¹
  Km: 684 µM
  Vmax: 0.92 nM/s
[2]
  Kcat: 83.6 s⁻¹
  Km: 688 µM
  Vmax: 0.85 nM/s
[3]
  Kcat: 19.8 s⁻¹
  Km: 679 µM
  Vmax: 0.24 nM/s
[4]
  Kcat: 20.7 s⁻¹
  Km: 675 µM
  Vmax: 0.21 nM/s
[5]
  Km: 525 µM
[6]
  Km: 540 µM
[7]
  Km: 521 µM
[8]
  Km: 515 µM
[9]
  Km values of all mutants: similar
